Test results reported in US9642854B2, “Flavanoid compounds and process for preparation thereof” (Council of Scientific & Industrial Research, priority 2009, dated 2017).

Columns and labels:
H. pylori [1] = test: Anti H. pylori screening by disc diffusion susceptibility assay; format: cell-based, Helicobacter pylori; details: spacer molecules
Description: The discs were impregnated with […] of each of the compounds, dissolved either in ethanol or DMSO, and the zone of inhibition was measured after 72 h of growth under microaerophilic conditions at 37° C. Inhibition zone diameter ranging 10-20 mm was given a score of ^+, 20-30 mm as ^++ and that of >30 mm as ^+++, as obtained employing dose range of […]/disc. The detailed structural information of the molecules is provided under ‘Description of the Compounds’.
Methods and protocols for the determination of inhibition zone diameter are as stated under Experiment 1, and that of MIC values by microbroth dilution assay as in Experiment 3. ‘Nil’ means zone of inhibition below 10 mm.
The anti H. pylori activity of all 16 flavonoid molecules, 2 naturally isolated and 14 synthetic derivatives, was screened by disc diffusion sensitivity assay employing 2 clinical strains HP001 and HP002, and three standard strains ATCC® 700392, 43504 and 49503. A 0.5 mL inoculum (10^8 CFU/mL) for each bacterial strain tested was flooded on freshly prepared Brain Heart Infusion (BHI) agar plates supplemented with 7% FCS, 0.5% IsoVitalex and 0.0025% DENT® and the discs (5 mm diameter) containing different compounds or antibiotics (dissolved either in ethanol or DMSO) were placed on the agar surface. After incubation for 3 days in a microaerophilic atmosphere at 37° C., the diameter of the zone of inhibition was measured (Glupczynsky, 1996; McNulty et al., 2002).

H. pylori [2] = test: MIC and MBC by microbroth dilution assay; format: cell-based, Helicobacter pylori; details: Helicobacter pylori
Description: The compounds, serially diluted ([…]) in Muller Hinton broth containing 5% FCS, were incubated in 96-well microtitre plate containing fresh cultures of HP001 (˜5.5×10^6 CFU/mL) or ATCC® 43504 (2.65×10^6 CFU/ml) in a final volume of […]. After 72-h of incubation under microaerophilic condition at 37° C., […] of cultures wherein no growth had been detected were streaked on fresh brain heart infusion agar plates for MBC determination.
In microbroth dilution assay employing one clinical and one standard strain, both the bacteriostatic and the bactericidal values were determined for all four compounds as well as for clarithromycin (Table 4). Two-fold serial dilutions were prepared in 96-well microtitre plate containing a total volume of 0.1 mL Mueller Hinton broth supplemented with 5% FCS. A 3-day old liquid culture was diluted 10 times in Mueller Hinton broth and 0.1 mL of these cultures was inoculated into each well to give a final concentration of ˜10^6 CFU/mL. The plates were incubated for 3 days in a microaerophilic atmosphere at 37° C. Following incubation, the plates were examined visually, and the lowest concentration showing complete inhibition of growth was recorded as the MIC of the respective compound (Hachem et al., 1996). Aliquots (0.1 mL) of 72-h culture in which no growth had been detected were taken from the wells of the above microtitre plates and used to streak on fresh BHI agar plates.

[3] = ATCC43504, microbroth dilution, ATCC 43504

MIC (H. pylori [2]; [3]) [µg/mL]	MIC (H. pylori [2]; microbroth dilution, HP001) [µg/mL]	Structure (SMILES)	Inhibition Zone Diameter (mm) (H. pylori [1]; ATCC 43504)	Inhibition Zone Diameter (mm) (H. pylori [1]; HP001)
> 400	> 400	CCCN1CCOCC1 [reference compound]	Nil (‘Nil’ means zone of inhibition below 10 mm.)	Nil (‘Nil’ means zone of inhibition below 10 mm.)
> 400	> 400	COCCCN1CCOCC1 [reference compound]	Nil (‘Nil’ means zone of inhibition below 10 mm.)	Nil (‘Nil’ means zone of inhibition below 10 mm.)
> 400	> 400	CCCN1CCN(C)CC1 [reference compound]	Nil (‘Nil’ means zone of inhibition below 10 mm.)	Nil (‘Nil’ means zone of inhibition below 10 mm.)
> 400	> 400	CCCN1CCCCC1 [reference compound]	Nil (‘Nil’ means zone of inhibition below 10 mm.)	Nil (‘Nil’ means zone of inhibition below 10 mm.)
